Results reported in US20240059703A1 (AMGEN INC., priority 2021, published 2024).

Each compound was assayed against KRAS G12C (Homo sapiens (Human), UniProt P01116, C118A/G12C) (assay: 2 h coupled exchange assay). Conditions: Avg 2 h Coupled exchange IC50, 2 h compound pre-incubation, SOS-mediated nucleotide exchange.
Type: biochemical
Protocol: The term “2 h coupled exchange assay” or “20 h coupled exchange assay” as used herein refers to the assay described in the Section entitled “BIOLOGICAL EVALUATION.”

KRAS G12C, sequence (P01116 other isoform, or with tags, fused parts or gaps G12C/C118A): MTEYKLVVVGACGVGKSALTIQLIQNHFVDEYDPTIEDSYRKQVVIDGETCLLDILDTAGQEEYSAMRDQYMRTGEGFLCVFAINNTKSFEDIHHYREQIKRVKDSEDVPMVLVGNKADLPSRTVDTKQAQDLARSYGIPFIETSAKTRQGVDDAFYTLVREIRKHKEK

Row | Structure (SMILES) | IC50 [µM]
1 | C=CC(=O)N1CC2(CCN(c3nc4c(c(-c5c(C)ccc6[nH]ncc56)c3C)CCC(C)(C)C4)C2)C1 (single isomer, unassigned) [Example 2-12, (M)-1-(6-(3,7,7-trimethyl-4-(5-methyl-1H-indazol-4-yl)-5,6,7,8-tetrahydro-2-quinolinyl)-2,6-diazaspiro[3.4]octan-2-yl)-2-propen-1-one] | 1.11
2 | C=CC(=O)N1CC2(CCN(c3nc4c(c(-c5cccc6cc(O)ccc56)c3C)CCC(C)(C)C4)C2)C1 (single isomer, unassigned) [Example 2-14, (M)-1-(6-(4-(6-hydroxy-1-naphthalenyl)-3,7,7-trimethyl-5,6,7,8-tetrahydro-2-quinolinyl)-2,6-diazaspiro[3.4]ctan-2-yl)-2-opropen-1-one] | 2.9
3 | C=CC(=O)N1CC2(CCN(c3nc4c(c(-c5ccc(F)c6sc(N)nc56)c3C)CCC(C)(C)C4)C2)C1 (single isomer, unassigned) [Example 2-18] | 5.24
4 | C=CC(=O)N1CC2(CCN(c3nc4c(c(-c5c(C)ccc6cnn(C)c56)c3C)CCC(C)(C)C4)C2)C1 (single isomer, unassigned) [Example 2-20, (M)-1-(6-(4-(1,6-dimethyl-1H-indazol-7-yl)-3,7,7-trimethyl-5,6,7,8-tetrahydro-2-quinolinyl)-2,6-diazaspiro[3.4]octan-2-yl)-2-propen-1-one] | 10.5
5 | C=CC(=O)N1CC2(CCN(c3nc4c(c(-c5c(C)ccc6cn[nH]c56)c3C)CCC(C)(C)C4)C2)C1 (single isomer, unassigned) [Example 2-24, (P)-1-(6-(3,7,7-trimethyl-4-(6-methyl-1H-indazol-7-yl)-5,6,7,8-tetrahydro-2-quinolinyl)-2,6-diazaspiro[3.4]octan-2-yl)-2-propen-1-one] | 0.119
6 | C=CC(=O)N1CC2(CCN(c3nc4c(c(-c5c(C)ccc6cn[nH]c56)c3C)CCC(C)(C)C4)C2)C1 (single isomer, unassigned) [Example 2-25, (M)-1-(6-(3,7,7-trimethyl-4-(6-methyl-1H-indazol-7-yl)-5,6,7,8-tetrahydro-2-quinolinyl)-2,6-diazaspiro[3.4]octan-2-yl)-2-propen-1-one] | 6.88
7 | C=CC(=O)N1CC2(CCN(c3nc4c(c(-c5cc(O)cc6cccnc56)c3C#N)C[C@H]3C[C@@H]4C3(C)C)C2)C1 (single isomer, unassigned) [Example 2-44] | 131
8 | C=CC(=O)N1CC2(CCN(c3nc4c(c(-c5cc(O)cc6ncccc56)c3C#N)C[C@H]3C[C@@H]4C3(C)C)C2)C1 (single isomer, unassigned) [Example 2-47] | 0.181
9 | C=CC(=O)N1CC2(CCN(c3cc4c(c(-c5cc(O)cc6ccccc56)c3C#N)OCCC4)C2)C1 (single isomer, unassigned) [Example 2-53, (P)-8-(3-hydroxy-1-naphthalenyl)-6-(2-(2-propenoyl)-2,6-diazaspiro[3.4]octan-6-yl)-3,4-dihydro-2H-chromene-7-carbonitrile] | 7.11
10 | C=CC(=O)N1CC2(CCN(c3nc4ccccc4c(-c4c(C)ccc5[nH]ncc45)c3C)C2)C1 (single isomer, unassigned) [Example 2-55, (P)-1-(6-(3-methyl-4-(5-methyl-1H-indazol-4-yl)-2-quinolinyl)-2,6-diazaspiro[3.4]octan-2-yl)-2-propen-1-one] | 0.419
11 | C=CC(=O)N1CC2(CCN(c3nc4ccccc4c(-c4c(C)ccc5[nH]ncc45)c3C)C2)C1 (single isomer, unassigned) [Example 2-56, (M)-1-(6-(3-methyl-4-(5-methyl-1H-indazol-4-yl)-2-quinolinyl)-2,6-diazaspiro[3.4]octan-2-yl)-2-propen-1-one] | 43.6
12 | C=CC(=O)N1CC2(CCN(c3nc4cc(F)ccc4c(-c4c(C)ccc5[nH]ncc45)c3C)[C@@H]2C)C1 (single isomer, unassigned) [Example 2-59] | 14.9

Further lines, results first:

Row | IC50 [µM] | Structure (SMILES)
13 | 0.657 | C=CC(=O)N1CC2(CCN(c3nc4c(c(-c5c(C)ccc6[nH]ncc56)c3C#N)CC(C)(C)C4)[C@H]2C)C1 (atropisomer, axis not shown; (P)) [Example 13-53, (P)-6,6-dimethyl-4-(5-methyl-1H-indazol-4-yl)-2-((5S)-5-methyl-2-(2-propenoyl)-2,6-diazaspiro[3.4]octan-6-yl)-6,7-dihydro-5H-cyclopenta[b]pyridine-3-carbonitrile]
14 | 0.13 | CN(C)C/C=C/C(=O)N1CC2(CCN(c3nc4c(c(-c5cc(O)cc6ccccc56)c3C#N)CC[C@@H]3C[C@H]43)C2)C1 (atropisomer, axis not shown; (P)) [Example 13-87, (P)-(6aR,7aS)-2-(2-((2E)-4-(dimethylamino)-2-butenoyl)-2,6-diazaspiro[3.4]octan-6-yl)-4-(3-hydroxy-1-naphthalenyl)-6,6a,7,7a-tetrahydro-5H-cyclopropa[h]quinoline-3-carbonitrile]
15 | 20.4 | CN(C)C/C=C/C(=O)N1CC2(CCN(c3nc4c(c(-c5cc(O)cc6ccccc56)c3C#N)CC[C@H]3C[C@@H]43)C2)C1 (racemic) [Example 13-86, (M)-(6aR,7aS)-2-(2-((2E)-4-(dimethylamino)-2-butenoyl)-2,6-diazaspiro[3.4]octan-6-yl)-4-(3-hydroxy-1-naphthalenyl)-6,6a,7,7a-tetrahydro-5H-cyclopropa[h]quinoline-3-carbonitrile and (M)-(6aS,7aR)-2-(2-((E)-4-(dimethylamino)but-2-enoyl)-2,6-diazaspiro[3.4]octan-6-yl)-4-(3-hydroxynaphthalen-1-yl)-6,6a,7,7a-tetrahydro-5H-cyclopropan[h]quinoline-3-carbonitrile]
16 | 4.67 | C=CC(=O)N1CC2(CCN(c3nc4cc(F)ccc4c(-c4c(C)ccc5[nH]ncc45)c3C)[C@H]2C)C1 (single isomer, unassigned) [Example 2-60]
17 | 16 | C=CC(=O)N1CC2(CCN(c3nc4c(c(-c5cc(O)ccc5C)c3C#N)C[C@H]3C[C@@H]4C3(C)C)C2)C1 (single isomer, unassigned) [Example 2-68]
18 | 20.3 | C=CC(=O)N1CC2(CCN(c3nc4c(c(-c5cccc(F)c5O)c3C#N)C[C@H]3C[C@@H]4C3(C)C)C2)C1 (single isomer, unassigned) [Example 2-71]
19 | 0.651 | C=CC(=O)N1CC2(CCN(c3nc4c(c(-c5cccc(F)c5O)c3C#N)C[C@H]3C[C@@H]4C3(C)C)C2)C1 (single isomer, unassigned) [Example 2-72]
20 | 0.454 | C=CC(=O)N1CC2(CCN(c3nc4c(c(-c5cc(O)ccc5Cl)c3C#N)C[C@H]3C[C@@H]4C3(C)C)C2)C1 (single isomer, unassigned) [Example 2-75]
21 | 20.1 | C=CC(=O)N1CC2(CCN(c3nc4c(c(-c5cc(O)ccc5C)c3Cl)COC(C)(C)C4)C2)C1 (single isomer, unassigned) [Example 2-80, (M)-1-(6-(3-chloro-4-(5-hydroxy-2-methylphenyl)-7,7-dimethyl-7,8-dihydro-5H-pyrano[4,3-b]pyridin-2-yl)-2,6-diazaspiro[3.4]octan-2-yl)-2-propen-1-one]
22 | 0.808 | C=CC(=O)N1CC2(CCN(c3nc4c(c(-c5c(C)ccc6[nH]ncc56)c3Cl)COC(C)(C)C4)C2)C1 (single isomer, unassigned) [Example 2-84, (P)-1-(6-(3-chloro-7,7-dimethyl-4-(5-methyl-1H-indazol-4-yl)-7,8-dihydro-5H-pyrano[4,3-b]pyridin-2-yl)-2,6-diazaspiro[3.4]octan-2-yl)-2-propen-1-one]
23 | 12.6 | C=CC(=O)N1CC2(CCN(c3nc4c(c(-c5c(C)ccc6[nH]ncc56)c3Cl)COC(C)(C)C4)C2)C1 (single isomer, unassigned) [Example 2-85, (M)-1-(6-(3-chloro-7,7-dimethyl-4-(5-methyl-1H-indazol-4-yl)-7,8-dihydro-5H-pyrano[4,3-b]pyridin-2-yl)-2,6-diazaspiro[3.4]octan-2-yl)-2-propen-1-one]
24 | 0.115 | C=CC(=O)N1CC2(CCN(c3nc4c(c(-c5c(C)ccc6cnn(C)c56)c3Cl)COC(C)(C)C4)C2)C1 (single isomer, unassigned) [Example 2-87, (M)-1-(6-(3-chloro-4-(1,6-dimethyl-1H-indazol-7-yl)-7,7-dimethyl-7,8-dihydro-5H-pyrano[4,3-b]pyridin-2-yl)-2,6-diazaspiro[3.4]octan-2-yl)-2-propen-1-one]
25 | 4.73 | C=CC(=O)N1CC2(CCN(c3nc4c(c(-c5c(C)ccc6cnn(C)c56)c3Cl)COC(C)(C)C4)C2)C1 (single isomer, unassigned) [Example 2-88, (P)-1-(6-(3-chloro-4-(1,6-dimethyl-1H-indazol-7-yl)-7,7-dimethyl-7,8-dihydro-5H-pyrano[4,3-b]pyridin-2-yl)-2,6-diazaspiro[3.4]octan-2-yl)-2-propen-1-one]
26 | 0.005 | C=CC(=O)N1CC2(CCN(c3nc4c(c(-c5c(C)c(Cl)cc6cnn(C)c56)c3Cl)COC(C)(C)C4)C2)C1 (single isomer, unassigned) [Example 2-90, (M)-1-(6-(3-chloro-4-(5-chloro-1,6-dimethyl-1H-indazol-7-yl)-7,7-dimethyl-7,8-dihydro-5H-pyrano[4,3-b]pyridin-2-yl)-2,6-diazaspiro[3.4]octan-2-yl)-2-propen-1-one]
27 | 2.89 | C=CC(=O)N1CC2(CCN(c3nc4c(c(-c5c(C)c(Cl)cc6cnn(C)c56)c3Cl)COC(C)(C)C4)C2)C1 (single isomer, unassigned) [Example 2-91, (P)-1-(6-(3-chloro-4-(5-chloro-1,6-dimethyl-1H-indazol-7-yl)-7,7-dimethyl-7,8-dihydro-5H-pyrano[4,3-b]pyridin-2-yl)-2,6-diazaspiro[3.4]octan-2-yl)-2-propen-1-one]

Same assay, conditions: read-out: Avg 2 h Coupled exchange IC50, 2 h compound pre-incubation

Row | IC50 [µM] | Structure (SMILES)
28 | 34.6 | C=CC(=O)N1CC2(CCN(c3nc4ccccc4c(-c4c(C)ccc5[nH]ncc45)c3C=C)C2)C1 (atropisomer, axis not shown; (M)) [Example 26-2, (M)-1-(6-(3-ethenyl-4-(5-methyl-1H-indazol-4-yl)-2-quinolinyl)-2,6-diazaspiro[3.4]octan-2-yl)-2-propen-1-one]
